Data published in US9394352B2, “Immunogenic POTE peptides and methods of use” (The United States of America, as represented by the …, priority 2010, dated 2016).

Key:
HLA-A2/POTE252 tetramer = experiment: HLA-A2/peptide tetramer stain and TCR Vβ repertoire of CTLs from immunized HHD-2 mice; format: in vivo; details: after 1-week in vitro stimulation with cognate peptide
Protocol: FIGS. 7A-7C are FACS plots showing HLA-A2/peptide tetramer staining and T cell receptor (TCR) repertoire determination for POTE 252- and POTE 252-9V-induced CTLs. HHD-2 mice were immunized subcutaneously with a mixture of peptide and cytokines in adjuvant. Two weeks after the second boost, pooled spleen cells from three mice were restimulated with irradiated splenocytes pulsed with 1.0 μM of peptide for 1 week. (FIG. 7A) Percentage of the HLA-A2/POTE252 tetramer-positive cells in the POTE 252- and POTE 252-9V-induced CTLs. (FIG. 7B) TCR Vβ repertoires of the tetramer^+CD8^+ T cells in POTE 252-induced CTLs. (FIG. 7C) TCR Vβ repertoires of the tetramer^+CD8^+ T cells in POTE 252-9V-induced CTLs.
AAD or HHD-2 mice were immunized subcutaneously (s.c.) in the base of the tail with 100 μl of an emulsion containing 1:1 incomplete Freund's adjuvant (Sigma) and PBS with peptides and cytokines (50 nmol of CTL epitope, 50 nmol of hepatitis B virus core 128-140 helper epitope, 5 μg of mouse interleukin-12, and 5 μg of mouse granulocyte macrophage colony-stimulating factor). Cytokines were purchased from Peprotech (Rocky Hill, N.J.). Mice were boosted 2 weeks later, and the spleens were removed 2 weeks after the boost. For all experiments, groups of three mice were used. […]

[1] = test system: C1R.AAD cells pulsed with peptide; experiment: 4-hour 51Cr release CTL assay after one week in vitro stimulation; format: cell-based, human; details: CTLs from immunized AAD mice, restimulated 7 days with 1.0 μM peptide; targets pulsed with 1.0 μM peptide
Protocol: FIGS. 3A and 3B are graphs showing immunogenicity of the wild type and enhanced POTE 252 epitopes in AAD mice. AAD mice were immunized subcutaneously with a mixture of peptide and cytokines in adjuvant as described in Example 1. (FIG. 3A) Two weeks after the second boost, splenocytes pooled from three mice were restimulated with splenocytes of naïve AAD mice pulsed with 1.0 μM of each peptide at different effector to target (E/T) ratios. Cells were cultured in anti-mouse IFN-γ antibody coated ELISPOT™ plates. After overnight culture, biotinylated anti-mouse IFN-γ antibodies were added to each well. ELISPOT™ substrates were added to develop the color and spots were counted by an ELISPOT™ reader (AID ELISPOT™ reader system). Figures show numbers of spots per million cells. (FIG. 3B) CTL cross-reactivity on each peptide. Two weeks after the second boost, pooled spleen cells from three mice were restimulated with irradiated splenocytes pulsed with 1.0 μM of peptide for 7 days. In a 4-hour ^51Cr release assay, CIR.AAD cells were pulsed with 1.0 μM of peptide and labeled with ^51Cr. After washing three times, target cells were mixed with different numbers of effector cells and then cultured for 4 hours before harvesting.
FIGS. 4A-4D are graphs showing immunogenicity of the wild type and enhanced POTE 553 epitopes in AAD mice. AAD mice were immunized subcutaneously with a mixture of peptide and cytokines in adjuvant. (FIGS. 4A and 4B) Two weeks after the second boost, splenocytes pooled from three mice were restimulated with splenocytes of naïve AAD mice pulsed with 10 nM to 1.0 μM of each peptide at different E/T ratios. Cells were cultured in anti-mouse IFN-γ antibody coated ELISPOT™ plates. After overnight culture, biotinylated anti-mouse IFN-γ antibodies were added to each well. ELISPOT™ substrates were added to develop color and spots were counted by an ELISPOT™ reader (AID ELISPOT™ reader system). Figures show numbers of spots per million cells. (FIGS. 4C and 4D) CTL cross-reactivity on each peptide. Two weeks after the second boost, pooled spleen cells from three mice were restimulated with irradiated splenocytes pulsed with 1.0 μM of peptide for 7 days. In a 4-hour ^51Cr release assay, CIR.AAD cells were pulsed with 1.0 μM of peptide and labeled with ^51Cr. After washing three times, target cells were mixed with different numbers of effector cells and then cultured for 4 hours before harvesting.
FIGS. 5A and 5B are graphs showing immunogenicity of the POTE 272 epitope in AAD mice. AAD mice were immunized subcutaneously with a mixture of peptide and cytokines in adjuvant. (FIG. 5A) Two weeks after the second boost, splenocytes pooled from three mice were restimulated with splenocytes of naïve AAD mice pulsed with 1.0 μM POTE 272 peptide at different E/T ratios. Cells were cultured in anti-mouse IFN-γ antibody coated ELISPOT™ plates. After overnight culture, biotinylated anti-mouse IFN-γ antibodies were added in each well. ELISPOT™ substrates were added to develop color and spots were counted by an ELISPOT™ reader (AID ELISPOT™ reader system). Figures show numbers of spots per million cells. (FIG. 5B) CTL reactivity on POTE 272 peptide. Two weeks after the second boost, pooled spleen cells from three mice were restimulated with irradiated splenocytes pulsed with 1.0 μM POTE 272 peptide for 7 days. In a 4-hour ^51Cr release assay, CIR.AAD cells were pulsed with 1.0 μM POTE 272 peptide and labeled with ^51Cr. After washing three times, target cells were mixed with different numbers of effector cells and then cultured for 4 hours before harvesting.
FIGS. 6A and 6B are graphs showing immunogenicity of the wild type and enhanced POTE 323 epitopes in AAD mice. AAD mice were immunized subcutaneously with a mixture of peptide and cytokines in adjuvant. (FIG. 6A) Two weeks after the second boost, splenocytes pooled from three mice were restimulated with splenocytes of naïve AAD mice pulsed with 1.0 μM of each peptide at different E/T ratios. […]

KLMAKALLL [POTE 252-260, unmodified 9-mer peptide, residues 252-260 of human POTE]
tetramer-positive CD8+ T cells (HLA-A2/POTE252 tetramer): 9.3%
CTL lysis of peptide-pulsed target cells [1]: lysed target cells pulsed with the wild-type POTE 252 as well as POTE 252-9V
